Experimental data as given in patent US20240206516A1, “SYSTEMS AND METHODS FOR SUGAR-REDUCTION AND/OR FIBER PRODUCTION FOR FOOD AND OTHER APPLICATIONS” (President and Fellowa of Harvard College, priority 2021, published 2024).

Experiments:
glucose oxidase = glucose oxidase (Aspergillus niger, UniProt P13006); assay: Enzymatic activity of glucose oxidase in the presence of polyphenol and metal ions at different pH; format: biochemical
Description: Enzymatic activity of glucose oxidase was tested in the presence of polyphenol and metal ions from minerals at different pH. Polyphenol is known to be able to bind to enzymes and also form metal coordination with the metal ions.
The enzyme (e.g, glucose oxidase) was combined with different polyphenols (e.g., tannic acid, EGCG) and metal ions from different minerals (e.g., CaCl2, FeCl3, MgCl2, ZnCl2) in buffer solutions having two pH conditions. A buffer having a first pH condition of 3.5 was used to simulate juice buffer. A buffer having a second pH condition of 7 was used to simulate intestinal buffer. The effect of bile salt (an intrinsic compound found in the intestine) on enzymatic activity of glucose oxidase was also tested by incorporating it into the simulated pH 7 intestinal buffer. It should be noted that the enzyme in FIG. 4 is not limited to glucose oxidase, as described in this example. Any appropriate enzymes described elsewherein herein (e.g., inulosucrase, etc.) may be employed using the experimental design in FIG. 4 for sugar reduction.
The enzyme activity of glucose oxidase was measured by measuring the capability of glucose oxidase to convert glucose in different experimental conditions. […] It was hypothesized that at a pH of 7, polyphenol formed metal coordination complexes with metal ions and thus dissociated from the glucose oxidase.
A similar trend in […] was observed when a different polyphenol, EGCE, was used instead of tannic acid.

inulosucrase = target: T1, inulosucrase (Lactobacillus gasseri, UniProt D3WYV9); assay: Inhibition of inulosucrase enzymatic activity by tannic acid; format: biochemical
T1 sequence (D3WYV9 37-761): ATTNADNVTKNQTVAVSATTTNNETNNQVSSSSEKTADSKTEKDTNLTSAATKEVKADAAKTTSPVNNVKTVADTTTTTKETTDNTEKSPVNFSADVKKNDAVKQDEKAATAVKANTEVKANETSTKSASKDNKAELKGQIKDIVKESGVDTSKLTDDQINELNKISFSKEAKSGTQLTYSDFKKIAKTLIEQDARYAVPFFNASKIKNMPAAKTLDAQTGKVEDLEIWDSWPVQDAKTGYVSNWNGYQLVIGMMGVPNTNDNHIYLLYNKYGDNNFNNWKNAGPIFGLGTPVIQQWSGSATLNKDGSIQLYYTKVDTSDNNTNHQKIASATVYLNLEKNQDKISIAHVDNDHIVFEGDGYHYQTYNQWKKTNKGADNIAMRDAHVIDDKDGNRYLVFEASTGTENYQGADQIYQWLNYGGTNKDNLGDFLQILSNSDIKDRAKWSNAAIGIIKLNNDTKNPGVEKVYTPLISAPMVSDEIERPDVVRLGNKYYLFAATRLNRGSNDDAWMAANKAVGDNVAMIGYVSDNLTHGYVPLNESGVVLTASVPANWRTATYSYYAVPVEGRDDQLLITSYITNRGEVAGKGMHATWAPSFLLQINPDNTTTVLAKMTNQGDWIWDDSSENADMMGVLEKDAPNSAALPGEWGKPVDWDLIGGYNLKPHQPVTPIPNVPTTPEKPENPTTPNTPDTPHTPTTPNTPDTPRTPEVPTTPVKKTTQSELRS
Description: In addition to encapsulating the inulosucrase-nanocellulose complex, an inhibitor (e.g., tannic acid) could also be encapsulated together with the complex. The amount of tannic acid necessary to inhibit enzymatic activity of inulosucrase (while attached to nanocellulose) is shown in FIG. 19. […] The effect of inulosucrase in various food products were studied. Free inulosucrase (not attached to any substrate) was added to a beverage (e.g., Capri San®) and the concentration of various saccharides was measured after 10 minutes at room temperature and 37° C. (FIG. 20A). […] Additional data for other food products (e.g., chocolates) are illustrated in FIGS. 20B-20C.
The effect of tannic acid on enzymatic activity in various food products at different pH conditions was studied. Tannic acid was combined with an enzyme (e.g., inulosucrase) at 1:1 molar ratio to form tannic acid-enzyme (TA-Enz) complex. The TA-Enz complex was prepared at various pH levels (e.g., 3.5, 5.5) and tannic acid concentrations (e.g., 10 mM, 30 mM, 50 mM). The effect of TA-Enz complex in sucrose solution and apple juice was compared to that of free enzyme (enzyme not complexed with tannic acid). Residual sucrose of sucrose solution and apple juice was first monitored in the presence of TA-Enz complexes after an incubation time of 15 minutes.
Residual sucrose of sucrose solution and apple juice was also monitored in the presence of TA-Enz complexes after an incubation time of 24 hours (FIGS. 23A-23B).

[1] = pH 3.5 (simulated juice buffer), polyphenol with Mg^+2 (from MgCl2)
[2] = pH 7 (simulated intestinal buffer), polyphenol with Mg^+2
[3] = pH 7 with bile salt (0.2 wt %), polyphenol with Mg^+2

glucose oxidase, sequence (P13006 17-605, species assumed): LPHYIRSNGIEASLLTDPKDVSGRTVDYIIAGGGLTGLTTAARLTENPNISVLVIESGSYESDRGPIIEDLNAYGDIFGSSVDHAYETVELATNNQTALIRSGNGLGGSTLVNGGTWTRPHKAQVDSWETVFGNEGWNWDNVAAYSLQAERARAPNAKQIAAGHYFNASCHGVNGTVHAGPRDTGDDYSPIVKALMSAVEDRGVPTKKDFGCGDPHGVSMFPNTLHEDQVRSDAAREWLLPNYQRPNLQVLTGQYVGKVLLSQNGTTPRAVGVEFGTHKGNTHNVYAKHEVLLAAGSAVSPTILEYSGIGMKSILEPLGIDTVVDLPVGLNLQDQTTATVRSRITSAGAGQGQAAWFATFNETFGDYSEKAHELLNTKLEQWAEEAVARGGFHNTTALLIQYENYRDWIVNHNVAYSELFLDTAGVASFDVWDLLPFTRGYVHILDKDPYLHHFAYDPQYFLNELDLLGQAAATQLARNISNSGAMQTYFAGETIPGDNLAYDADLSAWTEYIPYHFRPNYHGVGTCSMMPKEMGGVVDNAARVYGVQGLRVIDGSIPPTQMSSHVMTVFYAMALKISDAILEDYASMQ

SMILES | enzymatic activity of glucose oxidase (glucose oxidase; [1]) | enzymatic activity of glucose oxidase (glucose oxidase; [2]) | enzymatic activity of glucose oxidase (glucose oxidase; [3]) | concentration at which glucose oxidase activity was significantly inhibited (glucose oxidase) | inulosucrase activity after polyphenol inhibition (inulosucrase; in the presence of bile salts) | pH-dependent inhibition and reactivation of enzymatic activity (inulosucrase; low pH ˜3.5 vs higher pH ˜6.8) | enzymatic activity of inulosucrase (attached to nanocellulose) (inulosucrase; with increase in tannic acid concentration)
O=C(O[C@@H]1Cc2c(O)cc(O)cc2O[C@@H]1c1cc(O)c(O)c(O)c1)c1cc(O)c(O)c(O)c1 [EGCE, Epigallocatechin gallate] | prohibited its enzymatic activity | partially recovered | further enzymatic activity was recovered |  |  |  | 
O=C(OC[C@H]1O[C@@H](OC(=O)c2cc(O)c(O)c(OC(=O)c3cc(O)c(O)c(O)c3)c2)[C@H](OC(=O)c2cc(O)c(O)c(OC(=O)c3cc(O)c(O)c(O)c3)c2)[C@@H](OC(=O)c2cc(O)c(O)c(OC(=O)c3cc(O)c(O)c(O)c3)c2)[C@@H]1OC(=O)c1cc(O)c(O)c(OC(=O)c2cc(O)c(O)c(O)c2)c1)c1cc(O)c(O)c(OC(=O)c2cc(O)c(O)c(O)c2)c1 [tannic acid] | further inhibited | partially recovered | furthered recovered | 1 µM | reactivated in the presence of bile salts | repeated inhibition of enzymatic activity at low pH (e.g., pH˜3.5) and reactivation of enzymatic activity at higher pH (e.g., pH˜6.8) | reduction in enzymatic activity
